Assay in all cases: NCI tumour cell line growth inhibition, 48 h
The test system of experiment [1] is DLD-1 colon.
Experiment [2] concerns HOP-18 NSCLC.
The test system of experiment [3] is KM20L2 colon.
The subject of experiment [4] is LXFL 529 NSCLC.
The subject of experiment [5] is SNB-78 CNS.
In experiment [6] the test system is XF 498 CNS.
In experiment [7] the test system is DMS 114 small cell lung.
The test system of experiment [8] is RXF-631 renal.
Experiment [9] has as its system MDA-N.
Experiment [10] has as its system P388/ADR leukemia.
Experiment [11] concerns SN12K1 renal.

Values joined by “and” are separate entries in the source; they are usually repeats but may differ in a detail not shown here. Equal values may be shown once.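 A five-concentration, 48-hour dose response in 96-well plates underlies each endpoint, interpolated linearly between surrounding concentrations. GI50 marks 50% less growth. TGI is the concentration that stops growth completely.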

In the case of `CC(=O)Nc1ccc(C2=N/C(=C\c3ccc(Cl)cc3)C(=O)O2)cc1`, the TGI in experiment [1] is greater than 100 µM; in [2], greater than 100 µM; in experiment [3], greater than 100 µM; in experiment [4], 56.9 µM; in [5] it was greater than 100 µM; in experiment [6], 61.4 µM.

For `CC1=C(C(=O)Nc2ccc(C)cc2)C(c2cccc([N+](=O)[O-])c2)C(C(=O)Nc2ccc(C)cc2)=C(C)N1`, the TGI in experiment [1] is greater than 100 µM; in [7], 74.2 µM; in experiment [2] it was 80.2 µM; in experiment [3] it was 48 µM; in [4], greater than 100 µM; in experiment [8] it was 91.3 µM. Besides, the TGI in experiment [5] was greater than 100 µM; in experiment [6] it was 50.7 µM.

Molecule `CCc1ncc(CO)n1Cc1cccc2ccccc12` registered a TGI in [9] greater than 100 µM.

In experiment [9], `CC(C)C1=CC2=C(C(=O)C1=O)C13CCCC(C)(C)C1CC2OC3=O` (stereo unspecified) came in with a TGI of 37.2 µM.

Take `CC1(C)C(CC(=O)O)CCCC1CC(=O)O` (stereo unspecified): the TGI in [9] was greater than 100 µM.

In the case of `Cc1c(Cl)c(C)c(Cl)c(O)c1Cl`, in experiment [9], the TGI came to 99.2 µM.

Molecule `CCn1ncc(N=O)c1N` displayed a TGI in [9] greater than 100 µM.

Consider `N#Cc1cccc(C2C(=O)c3ccc(C(=O)c4ccc5c(c4)C(=O)N(c4ccc(Oc6ccc(N7C(=O)c8ccc(C(=O)c9ccc%10c(c9)C(=O)N(c9cccc(C#N)c9)C%10=O)cc8C7=O)cc6)cc4)C5=O)cc3C2=O)c1` (stereo unspecified), for which the TGI in [1], in [7], in experiment [3], in experiment [4], in [8] and in [6] was greater than 100 µM each time.

Turning to `Nc1nc(N)c2c(n1)CCC(S(=O)(=O)c1ccc3ccccc3c1)C2` (stereo unspecified), the TGI in experiment [9] is greater than 100 µM.

In the case of `Cc1ccccc1-n1c(CCl)nc2ccc(Br)cc2c1=O`, the TGI came out at 16.6 µM in experiment [1]; 20.5 µM in experiment [7]; 55.3 µM in [2]; 39.9 µM in experiment [3]; 18.5 µM in experiment [4]; 42.1 µM in experiment [8]. Also, the TGI in experiment [5] was found to be 52.2 µM.

`Clc1ccccc1C1SCc2nc3ccccc3n21` (stereo unspecified): the TGI in experiment [1] was greater than 100 µM; in experiment [4] it was greater than 100 µM; in [5], 53.6 µM; in [6], 87.2 µM.

As for `O=C(O)c1ccc(/C=N/N=C2c3ccccc3-c3ccccc32)cc1`, the TGI in [9] was greater than 100 µM.

On to `CC#CC#C/C(=C/C=CC(=O)OC)SC`, for which the TGI in [9] is greater than 100 µM.

As for `Fc1ccc(N=C2C=CC(=Nc3ccc(F)cc3)c3ccccc32)cc1`, the TGI in experiment [1], in experiment [2], in experiment [3], in [4], in [5] and in [6] was greater than 100 µM in each case.

`CCC(C)C1NC(=O)C(NC(=O)C(CC(C)C)N(C)C(=O)[C@@H]2CC(O)CN2C(=O)[C@H](C)O)C(C)OC(=O)[C@H](Cc2ccc(OC)cc2)N(C)C(=O)[C@@H]2CCCN2C(=O)[C@H](CC(C)C)NC(=O)C(C)C(=O)[C@H](C(C)C)OC(=O)CC1O` (stereo partly specified): in experiment [9], the GI50 is 0.0292 µM; the TGI is 1.07 µM and 1.11 µM.

As to `COC(=O)C1=CC(=O)[C@@H]2CCCC[C@H]12`, the TGI in experiment [1], in experiment [7], in [2], in experiment [3], in [4] and in [8] was greater than 100 µM throughout. Also, the TGI in experiment [5] was greater than 100 µM.

For the molecule `CC1[C@@H]2CC=C3[C@H]4CCC5Cc6nc7c(nc6C[C@@]5(C)C4CC(=O)[C@]32CO[C@]12OC(C)(C)CC2O)CC1CC[C@@H]2C3=C[C@H]4O[C@@]5(O[C@@](C)(CO)C[C@@H]5O)C(C)[C@@]4(O)[C@]3(C)[C@@H](O)CC2[C@]1(C)C7` (stereo partly specified), the GI50 was 0.0416 µM and 0.0575 µM in experiment [1]; 0.00119 µM and 0.00294 µM in experiment [3]; 0.000384 µM in [4]; 0.00389 µM in experiment [9]; 0.000312 µM in experiment [8]; 0.000777 µM and 0.00329 µM in experiment [5]. The GI50 in [6] is 0.000725 µM and 0.00479 µM. The TGI in [1] is 0.709 µM and > 3.65 µM; in experiment [7], 0.0424 µM; in [2], 0.393 µM and > 3.65 µM; in [3] it was 0.0349 µM and 0.0754 µM; in [4] it was 0.00244 µM; in [9], 0.0303 µM. Also, the TGI in experiment [10] is 0.0109 µM; in experiment [8], 0.00275 µM; in [11], 0.397 µM; in experiment [6], 0.424 µM and 1.8 µM.

`C=C(Br)COc1ccc2c(C)cc(=O)oc2c1` gave a TGI in experiment [9] greater than 100 µM.

As for `O=C(Cc1nc2ccccc2o1)C(=O)Nc1ccc(Cl)cc1Cl`, the TGI in experiment [1], in [7], in experiment [2], in experiment [3], in experiment [4] and in experiment [5] was greater than 100 µM throughout.

For the molecule `Cc1cc(Cl)cc2c1NC(=O)C2(O)C(C(=O)c1ccccc1)c1ccccc1` (stereo unspecified), the TGI in [1] is greater than 100 µM; in [7], 85.7 µM and 45.8 µM; in experiment [2], > 100 µM and 95.7 µM; in experiment [3] it was greater than 100 µM; in experiment [4], > 100 µM and 72.8 µM; in [8] it was greater than 100 µM. For the same molecule, the TGI in [5] is greater than 100 µM; in experiment [6], 82.7 µM and > 100 µM. For the same molecule, the GI50 is > 100 µM and 22 µM in experiment [2]; 56.2 µM and 24 µM in experiment [4].

With `CCc1ccccc1NC(=O)C(=O)C1C(=O)N(c2ccccc2)N=C1N` (stereo unspecified), the TGI in experiment [1], in experiment [7], in [2], in experiment [3], in experiment [4] and in experiment [8] was greater than 100 µM in each case. Further, the TGI in [5] and in experiment [6] was greater than 100 µM throughout.
